From PubChem BioAssay (NCI) come the findings set out here.

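Grown in 96-well plates, cells were treated for 48 hours with each compound at five concentrations. Insufficient inhibition: endpoint recorded as highest concentration tested. GI50: concentration for 50% inhibition of growth. TGI denotes the concentration required for complete inhibition of growth.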 Some results are limits rather than exact numbers.

Test systems include CAKI-1 renal; HL-60(TB) leukemia; HT29 colon; KM20L2 colon; NCI-H226 lung; NCI-H522 lung; OVCAR-3 ovarian; OVCAR-4 ovarian; OVCAR-8 ovarian; SF-268 CNS; SF-539 CNS; SK-MEL-2 melanoma; SK-MEL-28 melanoma; SK-OV-3 ovarian; SW-620 colon; UACC-62 melanoma.
Holding throughout (assay): NCI tumour cell line growth inhibition, 48 h

With `COc1cccc(/C=N/[N-]C(N)=O)c1[O-].[Ni+2].[OH3+].c1ccc(-c2ccccn2)nc1`, the TGI with CAKI-1 renal, in the test with HL-60(TB) leukemia, in the test with HT29 colon, in the test on KM20L2 colon, in the test with NCI-H226 lung and in the test on NCI-H522 lung was over 100 µM in each case. The TGI in the test on OVCAR-3 ovarian, in the test with OVCAR-4 ovarian, in the test with OVCAR-8 ovarian, with SF-268 CNS, in the test with SF-539 CNS and in the test with SK-MEL-2 melanoma was over 100 µM throughout. Further, the TGI in the test with SK-MEL-28 melanoma, in the test on SK-OV-3 ovarian, in the test on SW-620 colon and with UACC-62 melanoma was over 100 µM each time. For the same compound, in the test with HL-60(TB) leukemia, the GI50 is 66.9 µM.

As for `O=C(N/N=C/c1cc(Cl)cc(Cl)c1[O-])c1ccccc1O.O=C(N/N=C/c1cc(Cl)cc(Cl)c1[O-])c1ccccc1O.[Zn+2]`, the TGI in the test with CAKI-1 renal turned out to be 8.45 µM; with HL-60(TB) leukemia, 0.715 µM; in the test with HT29 colon, 13.7 µM; in the test with KM20L2 colon, 5.17 µM; in the test on NCI-H226 lung, 7.61 µM; in the test with NCI-H522 lung it was 0.764 µM. In addition, the TGI in the test with OVCAR-3 ovarian was determined as 1.85 µM; in the test with OVCAR-4 ovarian it was 2.4 µM; in the test on OVCAR-8 ovarian it was 3.38 µM; with SF-268 CNS it was 17.7 µM; in the test with SF-539 CNS it was 5.75 µM; with SK-MEL-2 melanoma, 11.5 µM. For the same compound, the TGI in the test on SK-MEL-28 melanoma turned out to be 14.8 µM; in the test on SK-OV-3 ovarian, 11.8 µM; in the test with SW-620 colon, 20.9 µM; in the test with UACC-62 melanoma, 1.84 µM. Also, the GI50 was 2.05 µM in the test with KM20L2 colon, 0.852 µM in the test with SF-539 CNS and 0.591 µM in the test with SK-MEL-2 melanoma.

Consider `OC1CCOc2ccccc21` (configuration not stated), for which the TGI with CAKI-1 renal, with HL-60(TB) leukemia, in the test with HT29 colon, with KM20L2 colon, in the test on NCI-H226 lung and with NCI-H522 lung was over 100 µM each time. Moreover, the TGI in the test with OVCAR-3 ovarian, with OVCAR-4 ovarian, with OVCAR-8 ovarian, in the test with SF-268 CNS, in the test with SF-539 CNS and in the test on SK-MEL-2 melanoma was over 100 µM in each case. The TGI with SK-MEL-28 melanoma, with SK-OV-3 ovarian, with SW-620 colon and in the test with UACC-62 melanoma was over 100 µM each time.
